# In US5731286A, “Cyclic neurokinin A antagonists” (Merrell Pharmaceuticals, Inc., priority 1997, dated 1998):
# Test system: rat urinary bladder
# Assay: In situ rat urinary bladder preparation, NKA-induced bladder contraction
# Format: in vivo
# Method: FIG. 6. […] Continuous tracing shown for each animal.
# Rats, (female Sprague-Dawley, 150-200 g) were anesthetized with ketamine HCl (100 mg/kg i.p.) supplemented with urethane (1.2 g/kg i.p.). […] A needle was inserted into the apex of the bladder dome and saline was perfused through the bladder at a rate of 100 μl per minute. Bladder outflow was collected via a polyethylene cannula inserted into the urethra. Bladder contractions were monitored through a flow pressure transducer connected in series with the perfusion system. Test compounds were applied onto the bladder dome in 40-100 μl of saline or saline containing a minimum of DMSO. […] Antagonist was similarly applied onto the bladder 5 min before a repeated application of NKA. […] Amplitude (force) of contraction and 1-min time intervals were recorded continuously for each animal.
substance,measurement,setting,value
neurokinin A [NKA],Effect on bladder contraction when applied onto the dome of the exposed bladder,"anesthetized rats, 10 μg topical",sustained tonic contraction and an increase in frequency
same,Threshold concentration for contraction,"applied onto bladder dome, anesthetized rats",approximately 10 μg
same,Tachyphylaxis on repeated application,repeated application of 10 μg,did not result in any tachyphylaxis
